Source: US6534543B2, “Oxa acids and related compounds for treating skin conditions” (Avon Products, Inc., priority 1996, dated 2003)

Test system: stratum corneum desquamation
Experiment: normalizing effect on stratum corneum desquamation
Source text: Oxa acids easily dissolve in water to concentrations of at least 20 to 30% by weight. […] Dicarboxylic acids of moderate to long chain length, which have straight, all-carbon backbones, are virtually insoluble in water and other aesthetically acceptable vehicles. This severely limits the choice of delivery vehicles for the dicarboxylic acids. The desquamatory activity of such dicarboxylic acids is also questionable.

In the case of `O=C(O)CCCCCCCCCCC(=O)O` [dodecanedioic acid], the “normalizing effect on stratum corneum desquamation beyond that of vehicle alone” value (formulation containing 5% dodecanedioic acid) is reported as “do not produce any normalizing effect” and the “normalizing effect on stratum corneum desquamation beyond that of vehicle alone” value (formulation containing 10% dodecanedioic acid) is reported as “do not produce any normalizing effect”.
